The record followed here is patent US4816452A, “Aminothiazole substituted penicillins and antibacterial compositions thereof” (Beecham Group P.L.C., priority 1985, dated 1989).

The structures appear in SMILES notation. ≈ marks a conversion by molar mass, not a printed value. Bounds are passed on as bounds.

The subject of one data set is H. influenzae Q1. Briefly: In vitro MIC, H. influenzae Q1. In kind it is cell-based. To be noted: Haemophilus influenzae. The source says:
(§1) |In Vitro Biological Data.

For a further data set, the system named is H. influenzae NEMCl. Briefly: In vitro MIC, H. influenzae NEMCl. To be noted: Haemophilus influenzae. In kind it is cell-based.
Excerpt: as §1

The test system of the next data set is B. catarrhalis Ravasio. In words: In vitro MIC, B. catarrhalis Ravasio. The settings on record: Moraxella catarrhalis. In kind it is cell-based.
Excerpt: as §1

The next data set concerns S. aureus Oxford. Briefly: In vitro MIC, S. aureus Oxford. In kind it is cell-based. The settings on record: Staphylococcus aureus.
Excerpt: as §1

Data set [1] deals with S. aureus MB9. Briefly: In vitro MIC, S. aureus MB9. In kind it is cell-based. To be noted: for MIC: Staphylococcus aureus; for (M.I.C): in vivo.
Excerpt: as §1

In a further data set the test system is S. aureus V573. In words: In vitro MIC, S. aureus V573 (methicillin resistant strain). To be noted: Staphylococcus aureus. In kind it is cell-based. The source says:
In Vitro Biological Data.
(+ = methicillin resistant strain)

In a further data set the test system is S. epidermidis PHLN20. In words: In vitro MIC, S. epidermidis PHLN20. In kind it is cell-based. To be noted: Staphylococcus epidermidis.
Excerpt: as §1

In another data set the test system is S. pneumoniae 1761. In words: In vitro MIC, S. pneumoniae 1761. In kind it is cell-based. To be noted: Streptococcus pneumoniae.
Excerpt: as §1

The subject of data set [2] is S. aureus Smith. In words: M.I.C, S. aureus Smith. The settings on record: Staphylococcus aureus, in vivo. In kind it is cell-based.
Data set [3] relates to S. aureus Smith. In words: In vivo experimental infection in mice, S. aureus Smith. To be noted: Staphylococcus aureus, sc, subcutaneous, dosed at 1 and 5 hours after infection, 5 mice/group, read-out: Total S.C. CD50. The protocol:
(§2) In Vivo Biological Data.
(§3) The compound of example 4 was tested in vivo in mice
(§4) against experimental infections. The results of these
(§5) *dosed at 1 and 5 hours after infection. 5 mice/group.

Data set [4] relates to S. aureus MB9. Briefly: In vivo experimental infection in mice, S. aureus MB9. To be noted: Staphylococcus aureus, sc, subcutaneous, dosed at 1 and 5 hours after infection, 5 mice/group, read-out: Total S.C. CD50. The protocol: as §2, §3, §4, §5
A short description of data set [5]: Blood concentration in mice after subcutaneous administration. In kind it is in vivo. The settings on record: mouse, sc, 50 mg/kg. The protocol: The compound of example 4 was administered to mice (5) by the subcutaneous route at a dosage of 50 mg/kg and the blood concentration determined.

Regarding `CC1(C)S[C@@H]2[C@H](NC(=O)/C(=N\OC3CCCCC3)c3csc(N)n3)C(=O)N2[C@H]1C(=O)O` [Example 4, Sodium 6β-[2-(2-aminothiazol-4-yl)-(Z)-2-cyclohexyloxyiminoacetamido]penicillanate], the MIC in the data set with H. influenzae Q1 was 0.12 µg/mL; in the data set with H. influenzae NEMCl, 0.5 µg/mL; against B. catarrhalis Ravasio it was 0.25 µg/mL; against S. aureus Oxford, 0.12 µg/mL; with S. aureus MB9 [1], 0.5 µg/mL; in the data set on S. aureus V573, 4 µg/mL. Moreover, the MIC with S. epidermidis PHLN20 is 0.25 µg/mL; against S. pneumoniae 1761, < 0.03 µg/mL; in the data set on S. aureus Smith [2] it was 0.12 µg/mL. The molecule also registered a (M.I.C) in the data set with S. aureus MB9 [1] of 0.5 µg/mL. The results for the ED50 in the data set on S. aureus Smith [3] and in the data set with S. aureus MB9 [4] were 1.5 mg/kg and 4 mg/kg, respectively. In [5], this molecule gave an AUC of 9520 ng·h/mL. This molecule returned a concentration at 5 min in [5] (5 mins) of 31000 ng/mL. Moreover, the concentration at 10 min in data set [5] (10 mins) was found to be 21800 ng/mL. Moreover, the concentration at 20 min in data set [5] (20 mins) was 14300 ng/mL. This molecule also yielded a concentration at 0.5 h in data set [5] (30 mins) of 7700 ng/mL. The molecule also registered a concentration at 1 h in data set [5] (60 mins) of 900 ng/mL. The concentration at 2 h in data set [5] (120 mins) was < 90 ng/mL.
`Cc1onc(-c2c(F)cccc2Cl)c1C(=O)N[C@@H]1C(=O)N2[C@@H]1SC(C)(C)[C@@H]2C(=O)O` [flucloxacillin, reference compound]: the MIC in the data set on H. influenzae Q1 worked out at 4 µg/mL (≈ 8.81 µM); in the data set with H. influenzae NEMCl it was 16 µg/mL (≈ 35.3 µM); against B. catarrhalis Ravasio, 16 µg/mL (≈ 35.3 µM); in the data set on S. aureus Oxford, 0.25 µg/mL (≈ 0.551 µM); in the data set with S. aureus MB9 [1], 0.5 µg/mL (≈ 1.1 µM); against S. aureus V573, 32 µg/mL (≈ 70.5 µM). Moreover, the MIC with S. epidermidis PHLN20, in the data set on S. pneumoniae 1761 and in the data set on S. aureus Smith [2] was 0.25 µg/mL (≈ 0.551 µM) throughout. This molecule also came in with a (M.I.C) with S. aureus MB9 [1] of 0.5 µg/mL. The results for the ED50 with S. aureus Smith [3] and in the data set with S. aureus MB9 [4] were 6 mg/kg and 17 mg/kg, respectively.
